Results on 3 compounds are retold here after ChEMBL document CHEMBL1143278, “3-Aminoxypropionate-based linker system for cyclization activation in prodrug design” (Bioorg Med Chem Lett, 2009).

SMILES strings stand for the structures.

A short description of series [1]: Stability assessed as cyclization activation in phosphate buffer at pH 6.0 by HPLC. The format is physicochemical.
Series [2] in a line: Stability assessed as cyclization activation in phosphate buffer at pH 7.4 by HPLC. Format: physicochemical.
A short description of series [3]: Stability assessed as formation of ((2R,3S,5R)-5-(5-fluoro-2,4-dioxo-3,4-dihydropyrimidin-1(2H)-yl)-3-hydroxytetrahydrofuran-2-yl)methyl 3-(aminooxy)-2,2-dimethylpropanoate in phosphate buffer at pH 7.4 in presence of alpha-chymotrypsin. The format is ADME.
Series [4] can be described thus: Stability in phosphate buffer at pH 7.4 in absence of alpha-chymotrypsin. The format is ADME.

In general, half-life refers to the time in which the quantity being followed falls by half. As for `Cl.NOCCC(=O)OC[C@H]1O[C@@H](n2cc(F)c(=O)[nH]c2=O)C[C@@H]1O`, the results for the half-life in series [1] and in series [2] were 22.9 h and 1.14 h, respectively.

On to `CC(C)(CONC(=O)[C@H](Cc1ccccc1)NC(=O)OCc1ccccc1)C(=O)OC[C@H]1O[C@@H](n2cc(F)c(=O)[nH]c2=O)C[C@@H]1O`, for which the t1/2 in series [3] turned out to be 0.608 h. For the same compound, the Stability result in series [4] is reported as “Stable”.

`CC(C)(CON)C(=O)OC[C@H]1O[C@@H](n2cc(F)c(=O)[nH]c2=O)C[C@@H]1O.Cl`: the half-life in series [1] was 23.4 h; in series [2], 0.722 h.
